Test results from patent publication US9546151B2, “VMAT inhibitory compounds” (Oregon Health & Science University, priority 2014, dated 2017).
Where two headings read alike, the source gives them in different places.

What was measured:
[1] = target: T1, human 5HT1A receptor (Homo sapiens, UniProt P08908); assay: h5HT1A receptors: [3H]8-OH-DPAT binding; settings: read-out: 5-HT1A [^3H] 8—OH DPAT Ki(nM) ± SEM
T1 construct: expressed in transfected cells; host or cells: HEK cells (G418 selection)
T1 sequence (P08908 1-422): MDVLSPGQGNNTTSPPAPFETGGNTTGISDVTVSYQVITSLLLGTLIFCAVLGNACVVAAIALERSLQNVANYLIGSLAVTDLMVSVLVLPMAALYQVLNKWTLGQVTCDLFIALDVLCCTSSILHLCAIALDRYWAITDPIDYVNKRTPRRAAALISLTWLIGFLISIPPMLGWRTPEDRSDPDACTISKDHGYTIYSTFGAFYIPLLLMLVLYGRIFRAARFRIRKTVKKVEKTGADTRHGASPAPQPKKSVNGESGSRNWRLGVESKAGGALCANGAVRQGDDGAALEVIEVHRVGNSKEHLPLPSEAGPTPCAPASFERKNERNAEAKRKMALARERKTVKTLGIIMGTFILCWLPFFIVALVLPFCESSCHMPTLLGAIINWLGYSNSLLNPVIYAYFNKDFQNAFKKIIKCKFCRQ
Procedure: Human embryonic kidney cells expressing the human 5HT1A receptor (HEK-h5HT1A) were used. The cells were grown to confluence in DMEM containing 10% FetalClone® (abbreviated as FC—source: HyClone), 0.05% penicillin-streptomycin (pen-strep), and 300 μg/mL of Geneticin (G418). The cells were scraped from 150 mm plates into phosphate-buffered saline and centrifuged at 270×g, 1200 rpm, for 10 minutes. The cell pellet was homogenized in 50 mM Tris-HCl (pH 7.7) with a Polytron, and centrifuged at 27,000×g. […] The final pellet was resuspended at 0.5 mg protein/mL in assay buffer (25 mM Tris-HCl, pH 7.4, containing 100 μM ascorbic acid and 10 μM pargyline). The assay was performed in duplicate in a 96-well plate. Serial dilutions of test compounds were made using the Biomek 2000 robotics system. […] Nonspecific binding was determined with 1.0 μM dihydroergotamine. The plates were incubated at room temperature for 60 minutes and then filtered through polyethylenimine-soaked (0.05%) “A” filtermats on a Tomtec cell harvester. The filters were washed with cold 50 mM Tris buffer (pH 7.7) for 6 sec, dried, spotted with scintillation cocktail, and counted for 2 minutes after a 4 hour delay on a Wallac Betaplate 1205 liquid scintillation counter.

[2] = target: T2, human 5HT2A receptor (Homo sapiens, UniProt P28223); assay: h5HT2A receptors: [125I]DOI binding
T2 construct: expressed in transfected cells; host or cells: HEK cells
T2 sequence (P28223 whole entry): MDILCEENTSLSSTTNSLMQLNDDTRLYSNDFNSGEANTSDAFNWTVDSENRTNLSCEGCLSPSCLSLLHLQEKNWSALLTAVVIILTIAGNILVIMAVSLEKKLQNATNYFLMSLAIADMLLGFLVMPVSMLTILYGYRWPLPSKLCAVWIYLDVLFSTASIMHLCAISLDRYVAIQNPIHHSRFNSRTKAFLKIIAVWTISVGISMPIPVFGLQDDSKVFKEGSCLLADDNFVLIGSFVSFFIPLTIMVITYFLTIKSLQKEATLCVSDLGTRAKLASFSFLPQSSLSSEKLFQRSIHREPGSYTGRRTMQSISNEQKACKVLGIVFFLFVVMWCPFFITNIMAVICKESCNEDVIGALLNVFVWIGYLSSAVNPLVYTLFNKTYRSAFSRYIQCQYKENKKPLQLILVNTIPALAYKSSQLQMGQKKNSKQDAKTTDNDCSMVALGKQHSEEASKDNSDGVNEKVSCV
Procedure: Method: Human embryonic kidney cells expressing the human 5HT2A receptor (HEK-h5HT2A) or human 5HT2C receptor (HEK-h5HT2C) were used. The cells were grown until confluent on 15 cm plates. Media was removed, cells were washed with phosphate-buffered saline (PBS), scraped into 2 ml PBS and frozen at −20° C. until needed. Cell suspension was thawed, 10 ml assay buffer (50 mM Tris, pH 7.4 at 37° C., with 0.1% ascorbic acid and 5 mM CaCl2) was added per plate of cells, and polytronned at setting 6 for 5 sec. The homogenate was centrifuged at 15,500 rpm for 20 min. […] The final pellet was resuspended in 2 ml buffer/plate of cells.
The reaction was incubated for 1 hour at 37° C., and terminated by filtration through Wallac A filtermats presoaked in 0.05% polyethylenimine using a Tomtec 96-well harvester. Radioactivity remaining on filters was counted in a Wallac betaplate reader. IC50 values were calculated using GraphPad Prism. IC50 values were converted using the Cheng-Prusoff equation.

[3] = target: T3, VMAT2 (Homo sapiens, UniProt Q05940); assay: hVMAT2 [3H]DTBZ ([3H]DHTB) binding assay; design: expressed in transfected cells; host or cells: HEK (human embryonic kidney) cells
T3 sequence (Q05940 whole entry): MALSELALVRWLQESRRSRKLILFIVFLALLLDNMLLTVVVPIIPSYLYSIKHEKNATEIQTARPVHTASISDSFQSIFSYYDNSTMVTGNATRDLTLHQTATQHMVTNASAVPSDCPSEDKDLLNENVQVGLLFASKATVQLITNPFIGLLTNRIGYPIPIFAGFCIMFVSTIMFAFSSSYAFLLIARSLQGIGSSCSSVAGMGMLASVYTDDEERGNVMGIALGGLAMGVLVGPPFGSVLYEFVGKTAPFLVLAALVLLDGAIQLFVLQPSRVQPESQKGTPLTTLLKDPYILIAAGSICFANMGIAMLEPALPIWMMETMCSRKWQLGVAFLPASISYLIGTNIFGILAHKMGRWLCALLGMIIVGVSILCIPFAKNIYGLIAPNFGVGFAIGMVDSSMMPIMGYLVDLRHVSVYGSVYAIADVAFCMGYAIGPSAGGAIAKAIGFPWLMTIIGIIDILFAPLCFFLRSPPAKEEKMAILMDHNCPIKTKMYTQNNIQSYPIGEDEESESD

[4] = target: T3, VMAT2; assay: hVMAT2 5HT Uptake; type: biochemical; design: expressed in transfected cells; host or cells: HEK (human embryonic kidney) cells
Outline: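 Membranes came from HEK cells expressing human VMAT2, homogenized in 0.32 M sucrose with protease inhibitors and spun at 800×g then 10,000×g. The pellet was osmotically shocked in ice-cold water, restored with Tris pH 7.4, sodium potassium tartrate and MgSO4, and collected at 20,000×g.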

[5] = target: T4, recombinant human dopamine transporter (hDAT) (Homo sapiens, UniProt Q01959); assay: [125I]RTI-55 binding, HEK-hDAT; settings: used in Cheng-Prusoff equation
T4 construct: expressed in transfected cells; host or cells: HEK cells
T4 sequence (Q01959 whole entry): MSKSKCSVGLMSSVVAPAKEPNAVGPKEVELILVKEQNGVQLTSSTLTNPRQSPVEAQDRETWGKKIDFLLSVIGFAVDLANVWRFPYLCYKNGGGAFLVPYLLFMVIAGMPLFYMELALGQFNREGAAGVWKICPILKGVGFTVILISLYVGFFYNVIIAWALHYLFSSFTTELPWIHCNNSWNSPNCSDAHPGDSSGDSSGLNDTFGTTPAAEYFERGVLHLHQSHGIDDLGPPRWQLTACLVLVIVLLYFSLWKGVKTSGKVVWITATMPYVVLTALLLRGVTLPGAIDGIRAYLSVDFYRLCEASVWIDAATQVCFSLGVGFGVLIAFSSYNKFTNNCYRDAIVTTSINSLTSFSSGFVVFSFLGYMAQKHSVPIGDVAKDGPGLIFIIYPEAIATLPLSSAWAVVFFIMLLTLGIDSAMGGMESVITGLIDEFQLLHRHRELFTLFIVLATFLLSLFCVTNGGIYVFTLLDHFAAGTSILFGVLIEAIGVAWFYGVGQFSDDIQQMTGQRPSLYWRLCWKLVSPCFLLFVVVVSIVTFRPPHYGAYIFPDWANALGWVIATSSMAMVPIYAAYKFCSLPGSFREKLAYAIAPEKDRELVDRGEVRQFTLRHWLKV
Procedure: (§1) Standard methods of assessing [^3H]neurotransmitter uptake and [^125I]RTI-55 binding using HEK cell lines are described in Eshleman et al, J Pharmacol Exp Therap 289, 877-885 (1999), which is incorporated by reference herein and were as follows:
(§2) Compounds were weighed and dissolved in DMSO to make a stock solution of 10 mM. An initial dilution to 50 μM in assay buffer or water for binding, or to 1 mM in assay buffer or water for uptake, was made. Subsequent dilutions were made with assay buffer supplemented with DMSO, maintaining a final concentration of 0.1% DMSO. Pipetting was conducted using a Biomek 2000 robotic workstation.
(§3) Cells were grown to 100% confluence on 150 mm diameter tissue culture dishes and served as the tissue source. Cell membranes were prepared as follows. Medium was poured off the plate, and the plate was washed with 10 ml of calcium- and magnesium-free phosphate-buffered saline. Lysis buffer (10 ml; 2 mM HEPES with 1 mM EDTA) was added. After 10 min, lysed cells were scraped from plates, transferred into centrifuge tubes, and centrifuged at 30,000×g for 20 min. The supernatant fluid was removed, and the pellet was resuspended in 12-32 ml of sucrose (0.32 M) using a Polytron at setting 7 for 10 sec. The resuspension volume depended on the density of binding sites within a cell line and was chosen to reflect binding of 10% or less of the total radioactivity. […]

[6] = target: T5, recombinant human serotonin transporter (hSERT) (Homo sapiens, UniProt P31645); assay: [125I]RTI-55 binding, HEK-hSERT; settings: used in Cheng-Prusoff equation
T5 construct: expressed in transfected cells; host or cells: HEK cells
T5 sequence (P31645 whole entry): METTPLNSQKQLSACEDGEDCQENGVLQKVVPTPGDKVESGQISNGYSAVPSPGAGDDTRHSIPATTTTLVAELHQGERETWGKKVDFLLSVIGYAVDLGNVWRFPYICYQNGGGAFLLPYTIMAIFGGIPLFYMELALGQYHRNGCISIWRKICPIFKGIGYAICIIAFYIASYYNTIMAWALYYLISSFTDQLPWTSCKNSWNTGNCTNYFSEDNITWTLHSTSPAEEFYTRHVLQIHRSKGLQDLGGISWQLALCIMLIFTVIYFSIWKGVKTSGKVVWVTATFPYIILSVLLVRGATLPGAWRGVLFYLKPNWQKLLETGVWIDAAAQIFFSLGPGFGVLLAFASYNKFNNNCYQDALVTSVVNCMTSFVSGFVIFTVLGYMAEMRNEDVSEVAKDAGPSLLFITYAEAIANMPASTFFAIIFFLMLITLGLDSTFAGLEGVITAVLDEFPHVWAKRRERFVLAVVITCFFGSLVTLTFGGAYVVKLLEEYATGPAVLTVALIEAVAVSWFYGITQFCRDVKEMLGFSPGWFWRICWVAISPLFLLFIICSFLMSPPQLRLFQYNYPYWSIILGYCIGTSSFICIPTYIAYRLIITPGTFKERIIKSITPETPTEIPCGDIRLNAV
Procedure: as §1, §2, §3

[7] = target: T6, recombinant human norepinephrine transporter (hNET) (Homo sapiens, UniProt P23975); assay: [125I]RTI-55 binding, HEK-hNET; settings: used in Cheng-Prusoff equation
T6 construct: expressed in transfected cells; host or cells: HEK cells
T6 sequence (P23975 whole entry): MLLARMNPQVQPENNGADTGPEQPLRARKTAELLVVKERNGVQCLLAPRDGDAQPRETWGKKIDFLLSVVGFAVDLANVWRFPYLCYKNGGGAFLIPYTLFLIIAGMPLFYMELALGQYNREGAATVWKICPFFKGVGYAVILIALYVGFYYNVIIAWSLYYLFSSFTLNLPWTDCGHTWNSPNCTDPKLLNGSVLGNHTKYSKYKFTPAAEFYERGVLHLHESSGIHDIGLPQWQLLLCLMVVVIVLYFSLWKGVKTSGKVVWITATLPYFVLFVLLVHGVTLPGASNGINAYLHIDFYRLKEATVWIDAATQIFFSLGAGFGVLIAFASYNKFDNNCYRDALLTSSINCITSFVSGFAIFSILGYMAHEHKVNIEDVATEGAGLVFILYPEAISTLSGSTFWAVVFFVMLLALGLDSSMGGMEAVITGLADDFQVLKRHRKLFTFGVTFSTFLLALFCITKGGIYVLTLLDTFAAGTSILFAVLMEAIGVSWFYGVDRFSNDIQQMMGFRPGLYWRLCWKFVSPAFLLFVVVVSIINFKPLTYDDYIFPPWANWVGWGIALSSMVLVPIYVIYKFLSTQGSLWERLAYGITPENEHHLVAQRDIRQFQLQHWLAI
Procedure: as §1, §2, §3

[8] = cells printed in μM under a head in nM
[9] = HEK-h5HT2A homogenate, read-out: 5-HT2A [^125I]DOI Ki (nM) ± SEM
[10] = [^3H]5HT uptake, HEK-hVMAT2 preparation, read-out: hVMAT2 5HT Uptake IC50 (nM) ± SEM
[11] = cells printed in μM under a head in nM, read-out: 5-HT2A [^125I]DOI Ki (nM) ± SEM
[12] = cells printed in μM under a head in nM, HEK-hVMAT2 membranes
[13] = cells printed in μM under a head in nM, read-out: hVMAT2 5HT Uptake IC50 (nM) ± SEM
[14] = HEK-hVMAT2 membranes, series 5 ligands tested as hydrochloride salts

For `CCOC(=O)[C@@H]1CN(CCn2c(=O)[nH]c3ccccc3c2=O)CC[C@@H]1c1ccccc1` (racemic) [Compound 5a, (±) syn-ethyl 1-(2-(2,4-dioxo-1,2-dihydroquinazolin-3(4H)-yl)ethyl)-4-phenylpiperidine-3-carboxylate], the Ki [1, 8] was > 10 µM, the Ki [2, 9] was 37.3 ± 8.5 nM and the Ki [3] was 1.17 ± 0.314 µM. The IC50 [4, 10] was 17 nM.

In the case of `CCOC(=O)[C@H]1CN(CCn2c(=O)[nH]c3ccccc3c2=O)CC[C@H]1c1cccc(N(C)C)c1` (racemic) [Compound 5aa, (±)-syn-Ethyl 4-(3-(dimethylamino)phenyl)-1-(2-(2,4-dioxo-1,2-dihydroquinazolin-3(4H),-yl)ethyl) piperidine-3-carboxylate], the Ki [1, 8] is reported as > 10 µM, the Ki [2, 11] is reported as > 10000 nM and the Ki [3, 12] is reported as > 10 µM. The IC50 [4, 13] was > 5000 nM.

For `CCOC(=O)[C@@H]1CN(CCn2c(=O)[nH]c3ccccc3c2=O)CC[C@@H]1c1ccc(C)cc1` (racemic) [Compound 5b, (±) syn-ethyl 1-(2-(2,4-dioxo-1,2-dihydroquinazolin-3(4H)-yl)ethyl)-4-(p-tolyl)piperidine-3-carboxylate], the Ki [1, 8] was > 10 µM, the Ki [2, 11] was > 10000 nM and the Ki [3, 12] was > 9 µM. The IC50 [4, 10] was 313 ± 54 nM.

For `CCOC(=O)[C@@H]1CN(CCn2c(=O)[nH]c3ccccc3c2=O)CC[C@@H]1c1ccc(C(F)(F)F)cc1` (racemic) [Compound 5f, (±) syn-ethyl 1-(2-(2,4-dioxo-1,2-dihydroquinazolin-3(4H)-yl)ethyl)-4-(4-(trifluoromethyl)phenyl)piperidine-3-carboxylate], the Ki [1, 8] was > 10 µM, the Ki [2, 11] was > 10000 nM and the Ki [3, 12] was > 10 µM. The IC50 [4, 10] was 416 ± 43 nM.

For `CCOC(=O)[C@@H]1CN(CCn2c(=O)[nH]c3ccccc3c2=O)CC[C@@H]1c1cccc(C(F)(F)F)c1` (racemic) [Compound 5g, (±) syn-ethyl 1-(2-(2,4-dioxo-1,2-dihydroquinazolin-3(4H)-yl)ethyl)-4-(3-(trifluoromethyl)phenyl)piperidine-3-carboxylate], the Ki [1, 8] was > 10 µM, the Ki [2, 11] was > 10000 nM and the Ki [3, 12] was > 10 µM. The IC50 [4, 10] was 166 ± 6 nM.

For `CCOC(=O)c1ccc([C@H]2CCN(CCn3c(=O)[nH]c4ccccc4c3=O)C[C@H]2C(=O)OCC)cc1` (racemic) [Compound 5l, (±) syn-ethyl 1-(2-(2,4-dioxo-1,2-dihydroquinazolin-3(4H)-yl)ethyl)-4-(4-(ethoxycarbonyl)phenyl)piperidine-3-carboxylate], the Ki [1, 8] was > 10 µM and the Ki [2, 11] was > 10000 nM.

With `CCOC(=O)[C@@H]1CN(CCn2c(=O)[nH]c3ccccc3c2=O)CC[C@@H]1c1ccc(C(C)O)cc1` (mixture of isomers) [Compound 5p, (±) syn-ethyl 1-(2-(2,4-dioxo-1,2-dihydroquinazolin-3(4H)-yl)ethyl)-4-(4-(1-hydroxyethyl)phenyl)piperidine-3-carboxylate] the Ki [1, 8] was > 10 µM, the Ki [2, 11] was > 10000 nM and the melting point was 187 to 188 °C. The Ki [3, 12] was > 9 µM and the IC50 [4, 13] was > 8000 nM.

In the case of `CC1CN(CCn2c(=O)[nH]c3ccccc3c2=O)CCC1C(=O)c1ccc(F)cc1` (racemic) [R1=H, R2=α/β-CH3], the Ki [1, 8] is reported as > 10 µM, the Ki [2, 9] is reported as 45.9 ± 12.4 nM and the Ki [3, 14] is reported as 0.276 ± 0.024 µM. For the same compound, the IC50 [4, 10] was 333 ± 106 nM.

In the case of `CC1CN(CCn2c(=O)[nH]c3ccccc3c2=O)CCC1C(=O)c1ccc(F)cc1` (single isomer, unassigned) [R1=H, R2=α-CH3], the Ki [1, 8] is reported as > 5 µM, the Ki [2, 9] is reported as 19.8 ± 5.8 nM and the Ki [3, 12] is reported as > 6.4 µM. For the same compound, the IC50 [4, 13] was > 7300 nM.

With `O=C(c1ccc(F)cc1)C1CCN(CCn2c(=O)[nH]c3ccc(Br)cc3c2=O)CC1` [R1=Br, R2=H] the Ki [1, 8] was > 2 µM, the Ki [2, 9] was 0.8 ± 0.24 nM and the Ki [3, 12] was > 3 µM. The IC50 [4, 13] was > 2000 nM.

With `CCOC(=O)C1=C(c2ccccc2)CCN(CCn2c(=O)[nH]c3ccccc3c2=O)C1` [R1=CO2-Et, 3,4-bond=ene] the Ki ([1]; HEK-h5HT1A homogenate) was > 0.0063 µM, the Ki [2] was 81 ± 26 nM and the Ki ([3]; read-out: hVMAT2 [^3H]DTBZ Ki (nM) ± SEM) was 0.874 ± 0.276 µM. The IC50 [4] was 66 ± 15 nM.

Compound `O=c1[nH]c2ccccc2c(=O)n1CCN1CC=C(c2ccccc2)CC1` [R1=H, 3,4-bond=ene] has a Ki ([1]; HEK-h5HT1A homogenate) of 0.197 ± 0.015 µM, a Ki [2, 9] of 139 ± 27 nM and a Ki [3, 14] of 0.821 ± 0.197 µM. The IC50 [4] was 3.9 ± 0.5 nM.

Compound `COC(=O)[C@H]1[C@@H](c2ccc(I)cc2)C[C@@H]2CC[C@H]1N2C` [[^125I]RTI-55] has a Kd [5] of 1.2 nM, a Kd [6] of 0.98 nM and a Kd [7] of 12.1 nM.
